According to paper PMC2724674 (Cancer research, 2009):

Molecular target: VEGF receptor 2 kinase (VEGFR2, KDR/Flk-1) (Homo sapiens, UniProt P35968)
Assay: in vitro kinase assay
Assay type: biochemical

VEGF receptor 2 kinase (VEGFR2, KDR/Flk-1), sequence (P35968 20-1356): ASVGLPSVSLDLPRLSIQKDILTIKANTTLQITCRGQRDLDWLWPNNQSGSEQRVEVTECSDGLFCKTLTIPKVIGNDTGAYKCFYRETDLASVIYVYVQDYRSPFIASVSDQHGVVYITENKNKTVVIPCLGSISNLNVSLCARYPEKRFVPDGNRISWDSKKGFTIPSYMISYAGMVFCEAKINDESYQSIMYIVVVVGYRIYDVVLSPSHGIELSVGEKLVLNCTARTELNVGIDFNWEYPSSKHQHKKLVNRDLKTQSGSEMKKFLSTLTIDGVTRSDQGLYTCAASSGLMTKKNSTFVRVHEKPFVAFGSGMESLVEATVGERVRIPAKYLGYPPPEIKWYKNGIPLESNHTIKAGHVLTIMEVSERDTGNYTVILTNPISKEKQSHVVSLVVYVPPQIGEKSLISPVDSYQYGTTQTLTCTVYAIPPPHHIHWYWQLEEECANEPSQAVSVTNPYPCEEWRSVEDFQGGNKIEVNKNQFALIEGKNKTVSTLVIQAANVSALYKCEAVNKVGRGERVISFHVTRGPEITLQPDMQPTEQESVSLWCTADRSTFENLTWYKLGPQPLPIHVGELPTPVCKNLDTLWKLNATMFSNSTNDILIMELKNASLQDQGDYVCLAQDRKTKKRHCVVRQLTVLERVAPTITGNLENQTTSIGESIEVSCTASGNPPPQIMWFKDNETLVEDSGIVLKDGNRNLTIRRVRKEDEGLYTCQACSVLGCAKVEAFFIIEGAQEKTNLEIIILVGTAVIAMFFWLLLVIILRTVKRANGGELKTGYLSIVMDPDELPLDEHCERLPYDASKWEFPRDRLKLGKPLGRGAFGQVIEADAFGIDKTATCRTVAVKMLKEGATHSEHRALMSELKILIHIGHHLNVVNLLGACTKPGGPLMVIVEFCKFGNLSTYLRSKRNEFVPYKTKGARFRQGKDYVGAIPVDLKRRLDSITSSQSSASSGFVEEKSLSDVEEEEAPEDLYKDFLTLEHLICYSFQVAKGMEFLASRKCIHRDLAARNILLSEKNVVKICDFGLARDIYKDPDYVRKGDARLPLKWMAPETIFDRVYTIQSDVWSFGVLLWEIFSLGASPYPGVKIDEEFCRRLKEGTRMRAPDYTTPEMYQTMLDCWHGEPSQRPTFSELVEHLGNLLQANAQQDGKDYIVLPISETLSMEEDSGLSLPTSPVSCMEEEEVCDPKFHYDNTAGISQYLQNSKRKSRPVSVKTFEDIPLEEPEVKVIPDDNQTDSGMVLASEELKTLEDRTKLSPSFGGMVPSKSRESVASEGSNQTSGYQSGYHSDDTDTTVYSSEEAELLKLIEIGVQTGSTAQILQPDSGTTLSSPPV

IC50: 1.68 µM
Compound: CC(=O)O[C@@H]1CC[C@@]2(C)[C@@H](CC[C@]3(C)[C@@H]2C(=O)C=C2[C@@H]4[C@@H](C)[C@H](C)CC[C@]4(C)CC[C@]23C)[C@@]1(C)C(=O)O [AKBA]
